# Patent publication US12624038B2, “Molecules and methods related to treatment of uncontrolled cellular proliferation” (ST. JUDE CHILDREN'S RESEARCH HOSPITAL, priority 2019, dated 2026)
# “Also recorded” adds a separate entry of the source. Where two headings read alike, the source gives them in different places.
# Experiments:
# MHH-CALL-4 = assay: Cytotoxicity assay (resazurin, 72 hours) in MHH-CALL-4 cells; type: cell-based, human; details: for killing of MHH-CALL-4 cells (activity in words): correlated with degradation of GSPT1 and JAK2, FIG. 7F
# [1] = tested on: Human CD45+ leukemic cells from patient derived xenografts (PDX); assay: Ex vivo cytotoxicity (MTT) in PDX leukemic cells; details: FIG. 6A
# IKZF1 = target: T1, IKZF1 (Homo sapiens, UniProt Q13422+Q96SW2); assay: Target degradation (Western Blot) in MHH-CALL-4 cells, IKZF1; type: cell-based; details: 100 nM PROTAC at 24 h
# T1 construct: endogenous in cells; host or cells: MHH-CALL-4
# JAK2 = target: T2, JAK2 (Homo sapiens, UniProt O60674, I682F); assay: Target degradation (Western Blot) in MHH-CALL-4 cells, JAK2; type: cell-based; details: 100 nM PROTAC at 24 h
# T2 construct: endogenous in cells; host or cells: MHH-CALL-4
# Caco-2 cell permeability = type: in vitro ADME; details: human, Caco-2; A to B (Table 4); read-out: Cac2 Papp A/B
# Procedure: Compound Caco-2 cell permeability was determined using the Transwell® 0.4 μm polycarbonate membrane 96-well as described before (Uchida, et al. (2009) J Pharmacol Toxicol Methods 59(1): 39-43). Briefly, Caco-2 cells monolayers were incubated over 2 hours at 37° C. Fractions were collected from receivers (basal side, B), and concentrations were assessed by UPLC/MS (Waters; Milford, MA). All compounds were tested in triplicates. The A→B (or B→A) apparent permeability coefficients (Papp) of each compound were calculated using the equation, Papp=dQ/dt×1/AC0, where dQ/dt equals the flux of a drug across the monolayer, A equals the total insert well surface area, and C0 is the initial concentration of substrate in the donor compartment.
# TYK2 = TYK2 (Homo sapiens, UniProt P29597); assay: KdELECT Kd measurement (KINOMEscan platform), TYK2; type: binding; set-up: purchased Eurofins DiscoveRx; details: read-out: Kd to JAK family kinases, TYK2
# GSPT1 = target: T3, GSPT1 (Homo sapiens, UniProt P15170+Q96SW2); assay: Target degradation (Western Blot) in MHH-CALL-4 cells, GSPT1; type: cell-based; details: 100 nM PROTAC at 24 h
# T3 construct: endogenous in cells; host or cells: MHH-CALL-4
# [2] = Homo sapiens, MHHCALL4, MHH-CALL-4 (Table 1), read-out: EC50
# [3] = Homo sapiens, MHHCALL4, Table 6, starred: EC50 from partial dose response curve, read-out: MHHCALL4 EC50 from partial dose response curve
# [4] = Homo sapiens, MHHCALL4, MHH-CALL-4 (Table 2), read-out: EC50 in MHH-CALL-4
# T1 sequence (Q13422 whole entry): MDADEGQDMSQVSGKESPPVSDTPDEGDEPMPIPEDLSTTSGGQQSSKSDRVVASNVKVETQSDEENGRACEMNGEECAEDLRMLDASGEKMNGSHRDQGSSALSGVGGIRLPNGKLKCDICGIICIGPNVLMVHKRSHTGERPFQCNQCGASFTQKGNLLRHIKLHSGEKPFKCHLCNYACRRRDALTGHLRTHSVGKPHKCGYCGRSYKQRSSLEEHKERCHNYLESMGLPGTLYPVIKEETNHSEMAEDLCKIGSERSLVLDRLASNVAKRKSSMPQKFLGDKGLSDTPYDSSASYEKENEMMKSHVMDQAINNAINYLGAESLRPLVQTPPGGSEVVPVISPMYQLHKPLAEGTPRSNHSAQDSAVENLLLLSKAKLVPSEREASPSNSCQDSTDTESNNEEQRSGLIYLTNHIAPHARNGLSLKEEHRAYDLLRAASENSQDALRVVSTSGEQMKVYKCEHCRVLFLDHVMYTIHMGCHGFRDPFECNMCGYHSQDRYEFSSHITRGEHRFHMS
# T1 sequence (Q96SW2 whole entry): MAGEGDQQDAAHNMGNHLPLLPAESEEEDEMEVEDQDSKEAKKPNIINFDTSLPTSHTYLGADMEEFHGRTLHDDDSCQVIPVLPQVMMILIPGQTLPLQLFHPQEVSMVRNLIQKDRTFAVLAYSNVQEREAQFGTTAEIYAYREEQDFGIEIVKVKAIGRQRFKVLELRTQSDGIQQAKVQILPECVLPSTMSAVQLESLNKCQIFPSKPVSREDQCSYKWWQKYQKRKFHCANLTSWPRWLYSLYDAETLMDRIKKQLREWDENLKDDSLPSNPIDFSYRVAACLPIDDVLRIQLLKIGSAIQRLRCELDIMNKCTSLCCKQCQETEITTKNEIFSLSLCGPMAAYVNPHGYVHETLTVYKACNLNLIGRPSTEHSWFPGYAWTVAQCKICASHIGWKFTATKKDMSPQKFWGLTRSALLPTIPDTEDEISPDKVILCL
# T1 sequence (Q16531 whole entry partner): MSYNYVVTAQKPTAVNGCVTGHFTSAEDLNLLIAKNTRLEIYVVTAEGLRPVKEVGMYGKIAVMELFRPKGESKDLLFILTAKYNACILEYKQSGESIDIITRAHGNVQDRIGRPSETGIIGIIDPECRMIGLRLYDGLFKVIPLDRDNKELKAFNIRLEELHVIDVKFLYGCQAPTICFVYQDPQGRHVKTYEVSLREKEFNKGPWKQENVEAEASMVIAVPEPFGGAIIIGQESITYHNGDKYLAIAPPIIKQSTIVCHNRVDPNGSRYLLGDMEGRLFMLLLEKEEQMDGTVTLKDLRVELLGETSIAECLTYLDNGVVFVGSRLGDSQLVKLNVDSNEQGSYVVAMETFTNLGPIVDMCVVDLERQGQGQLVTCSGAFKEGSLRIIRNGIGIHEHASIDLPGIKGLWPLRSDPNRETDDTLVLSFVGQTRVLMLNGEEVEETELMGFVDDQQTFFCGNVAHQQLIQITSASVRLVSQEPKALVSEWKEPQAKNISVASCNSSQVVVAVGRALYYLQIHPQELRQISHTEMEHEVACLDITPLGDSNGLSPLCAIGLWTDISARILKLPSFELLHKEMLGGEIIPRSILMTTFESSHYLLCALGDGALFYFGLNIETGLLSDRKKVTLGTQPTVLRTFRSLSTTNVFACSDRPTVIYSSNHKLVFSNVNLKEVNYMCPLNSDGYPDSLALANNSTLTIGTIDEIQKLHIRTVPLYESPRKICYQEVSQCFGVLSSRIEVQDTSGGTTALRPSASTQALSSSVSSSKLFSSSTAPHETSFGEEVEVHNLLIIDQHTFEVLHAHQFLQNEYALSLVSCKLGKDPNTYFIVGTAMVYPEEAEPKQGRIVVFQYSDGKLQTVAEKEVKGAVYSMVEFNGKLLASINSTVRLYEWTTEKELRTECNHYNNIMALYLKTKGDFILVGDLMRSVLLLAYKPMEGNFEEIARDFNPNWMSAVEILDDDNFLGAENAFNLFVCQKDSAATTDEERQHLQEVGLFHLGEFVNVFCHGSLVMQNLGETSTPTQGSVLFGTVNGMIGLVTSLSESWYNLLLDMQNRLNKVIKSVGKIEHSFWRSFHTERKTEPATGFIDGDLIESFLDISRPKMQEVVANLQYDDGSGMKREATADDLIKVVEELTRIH
# T2 sequence (O60674 whole entry I682F): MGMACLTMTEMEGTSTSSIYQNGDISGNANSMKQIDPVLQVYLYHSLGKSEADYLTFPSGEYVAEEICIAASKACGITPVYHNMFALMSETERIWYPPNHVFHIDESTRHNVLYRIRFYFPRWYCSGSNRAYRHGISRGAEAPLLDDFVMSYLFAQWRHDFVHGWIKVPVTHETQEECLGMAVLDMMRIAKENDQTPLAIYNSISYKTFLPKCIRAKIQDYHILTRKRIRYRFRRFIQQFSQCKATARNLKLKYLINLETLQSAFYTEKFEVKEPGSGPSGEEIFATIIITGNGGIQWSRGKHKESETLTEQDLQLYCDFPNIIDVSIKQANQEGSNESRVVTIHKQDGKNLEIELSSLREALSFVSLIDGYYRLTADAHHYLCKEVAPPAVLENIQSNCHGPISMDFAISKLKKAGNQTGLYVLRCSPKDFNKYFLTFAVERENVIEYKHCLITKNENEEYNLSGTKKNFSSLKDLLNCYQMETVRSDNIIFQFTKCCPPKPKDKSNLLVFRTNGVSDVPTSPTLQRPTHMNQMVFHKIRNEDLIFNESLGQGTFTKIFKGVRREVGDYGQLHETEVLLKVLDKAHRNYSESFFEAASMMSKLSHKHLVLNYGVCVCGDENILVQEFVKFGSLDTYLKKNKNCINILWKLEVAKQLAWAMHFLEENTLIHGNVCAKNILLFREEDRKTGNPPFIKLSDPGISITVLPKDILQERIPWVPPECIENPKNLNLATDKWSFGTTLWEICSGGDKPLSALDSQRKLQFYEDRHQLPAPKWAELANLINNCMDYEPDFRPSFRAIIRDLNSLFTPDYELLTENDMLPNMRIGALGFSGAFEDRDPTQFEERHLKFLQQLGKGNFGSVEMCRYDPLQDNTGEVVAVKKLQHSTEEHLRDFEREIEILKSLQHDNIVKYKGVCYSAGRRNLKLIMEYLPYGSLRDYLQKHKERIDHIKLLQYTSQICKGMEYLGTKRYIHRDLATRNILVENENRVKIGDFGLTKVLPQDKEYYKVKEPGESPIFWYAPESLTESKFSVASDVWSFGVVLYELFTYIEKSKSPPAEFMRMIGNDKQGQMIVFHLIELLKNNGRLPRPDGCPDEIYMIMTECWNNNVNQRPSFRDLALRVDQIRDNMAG
# T3 sequence (P15170 whole entry): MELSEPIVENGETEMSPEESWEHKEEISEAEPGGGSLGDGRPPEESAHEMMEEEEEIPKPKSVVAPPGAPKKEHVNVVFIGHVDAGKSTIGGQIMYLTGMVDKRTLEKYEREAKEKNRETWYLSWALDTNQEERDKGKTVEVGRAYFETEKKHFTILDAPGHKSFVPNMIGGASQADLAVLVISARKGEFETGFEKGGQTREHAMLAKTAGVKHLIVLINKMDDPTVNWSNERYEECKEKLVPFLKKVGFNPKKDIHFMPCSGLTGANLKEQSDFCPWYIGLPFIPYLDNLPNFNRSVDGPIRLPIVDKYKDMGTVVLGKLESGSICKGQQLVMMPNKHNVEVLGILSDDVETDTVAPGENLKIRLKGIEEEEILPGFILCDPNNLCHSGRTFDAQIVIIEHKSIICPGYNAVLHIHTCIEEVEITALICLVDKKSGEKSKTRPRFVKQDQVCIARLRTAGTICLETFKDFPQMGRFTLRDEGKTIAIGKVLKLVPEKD
# T3 sequence (Q96SW2 whole entry): as the sequence (Q96SW2 whole entry) above
# T3 sequence (Q16531 whole entry partner): as the sequence (Q16531 whole entry partner) above
# Sequence of TYK2 (P29597 whole entry): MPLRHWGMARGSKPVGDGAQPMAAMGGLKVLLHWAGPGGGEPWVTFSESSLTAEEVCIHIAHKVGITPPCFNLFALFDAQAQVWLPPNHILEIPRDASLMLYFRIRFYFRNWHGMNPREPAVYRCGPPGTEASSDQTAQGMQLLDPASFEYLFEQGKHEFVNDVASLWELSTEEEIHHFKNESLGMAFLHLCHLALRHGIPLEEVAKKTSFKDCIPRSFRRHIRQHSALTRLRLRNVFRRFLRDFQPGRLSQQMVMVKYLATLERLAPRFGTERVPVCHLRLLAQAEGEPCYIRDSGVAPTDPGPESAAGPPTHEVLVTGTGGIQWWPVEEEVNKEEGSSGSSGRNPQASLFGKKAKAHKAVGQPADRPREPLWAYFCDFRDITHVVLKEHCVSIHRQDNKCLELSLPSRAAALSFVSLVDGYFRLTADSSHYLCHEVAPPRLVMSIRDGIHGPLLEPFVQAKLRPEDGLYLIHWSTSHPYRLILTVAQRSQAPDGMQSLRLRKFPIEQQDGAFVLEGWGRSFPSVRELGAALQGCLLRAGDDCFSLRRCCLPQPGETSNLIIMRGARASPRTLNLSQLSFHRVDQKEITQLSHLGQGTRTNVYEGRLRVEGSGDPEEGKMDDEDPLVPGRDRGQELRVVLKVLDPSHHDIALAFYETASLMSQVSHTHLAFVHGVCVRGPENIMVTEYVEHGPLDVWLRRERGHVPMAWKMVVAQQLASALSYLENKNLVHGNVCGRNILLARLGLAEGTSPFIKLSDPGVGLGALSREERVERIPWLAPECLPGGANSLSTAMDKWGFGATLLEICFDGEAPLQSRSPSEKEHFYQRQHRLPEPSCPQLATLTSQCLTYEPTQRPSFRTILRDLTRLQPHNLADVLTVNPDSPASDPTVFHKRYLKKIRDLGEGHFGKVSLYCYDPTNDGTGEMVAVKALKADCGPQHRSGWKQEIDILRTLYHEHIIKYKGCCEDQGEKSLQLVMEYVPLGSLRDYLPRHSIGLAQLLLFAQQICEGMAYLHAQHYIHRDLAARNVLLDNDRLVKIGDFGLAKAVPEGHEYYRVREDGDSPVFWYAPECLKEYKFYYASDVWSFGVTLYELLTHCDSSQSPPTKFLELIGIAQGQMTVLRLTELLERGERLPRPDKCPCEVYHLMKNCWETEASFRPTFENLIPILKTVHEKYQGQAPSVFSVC
structure (smiles),measurement,setting,value
"CC(=O)Nc1cc(Oc2ccc3c(nc(Nc4ccc(F)cc4F)n3C)c2C)ccn1 [CHZ868, reference compound]",EC50,"MHH-CALL-4; MHH-CALL-4 (Table 2), read-out: EC50 in MHH-CALL-4",0.18 µM
same,cytotoxicity in PDX cells ex vivo,[1],not
CCCn1cc(-c2nc(Nc3ccc(C(=O)NCCOCCOCCOCCOCCOCCOCCNc4cccc5c4C(=O)N(C4CCCNC4=O)C5=O)cc3)nc3[nH]ccc23)cn1 (centres unmarked) [SJ000986343],EC50,MHH-CALL-4; [2],12.8 µM
"CCCn1cc(-c2nc(NCCOCCOCCOCCOCCOCCOCCNC(=O)CNc3cccc4c3CN(C3CCC(=O)NC3=O)C4=O)nc3[nH]ccc23)cn1 (centres unmarked) [SJ000986078, 2-((2-(2,6-dioxopiperidin-3-yl)-1-oxoisoindolin-4-yl)amino)-N-(20-((4-(1-propyl-1H-pyrazol-4-yl)-7H-pyrrolo[2,3-d]pyrimidin-2-yl)amino)-3,6,9,12,15,18-hexaoxaicosyl)acetamide]",EC50,MHH-CALL-4; [2],> 100 µM
"N#CC[C@H](C1CCCC1)n1cc(-c2ncnc3[nH]ccc23)cn1 [Ruxolitinib, ruxolitinib, reference compound]",EC50,"MHH-CALL-4; Homo sapiens, MHHCALL4, read-out: EC50 in MHH-CALL-4",25.8 µM
same,EC50,"MHH-CALL-4; Homo sapiens, MHHCALL4, read-out: MHHCALL4 EC50",25.8 µM
CCS(=O)(=O)N1CC(CC#N)(n2cc(-c3nc(Nc4ccc(C(=O)NCCCCNc5ccc6c(c5)C(=O)N(C5CCC(=O)NC5=O)C6=O)cc4)nc4[nH]ccc34)cn2)C1 (centres unmarked) [Compound 80],EC50,"MHH-CALL-4; Homo sapiens, MHHCALL4, Table 6, no star, read-out: MHHCALL4 EC50",> 5.5 µM
same,killing of MHH-CALL-4 cells (activity in words),MHH-CALL-4,relatively low activity
same,Target Degradation (Western Blot) IKZF1,IKZF1,1 (1 = None (<20% degradation at 24 h))
same,Target Degradation (Western Blot) JAK2,JAK2,1 (1 = None (<20% degradation at 24 h))
CCCn1cc(-c2nc(Nc3ccc(C(=O)NCCOCCOCCNc4cccc5c4C(=O)N(C4CCC(=O)NC4=O)C5=O)cc3)nc3[nH]ccc23)cn1 (centres unmarked) [SJ000986339],EC50,MHH-CALL-4; [2],> 100 µM
CCS(=O)(=O)N1CC(CC#N)(n2cc(-c3nc(Nc4ccc(C(=O)NCCN5CCN(c6ccc7c(c6)C(=O)N(C6CCC(=O)NC6=O)C7=O)CC5)cc4)nc4[nH]ccc34)cn2)C1 (centres unmarked) [Compound 8],killing of MHH-CALL-4 cells (activity in words),MHH-CALL-4,intermediately effective; also recorded: reduced activity
same,Papp A→B at 2 h,Caco-2 cell permeability,0.02 nm/s
"CCS(=O)(=O)N1CC(CC#N)(n2cc(-c3ncnc4[nH]ccc34)cn2)C1 [Baricitinib, baricitinib, reference compound]",Kd,TYK2,0.0013 µM
CCS(=O)(=O)N1CC(CC#N)(n2cc(-c3nc(Nc4ccc(C(=O)NCCCNC(=O)COc5cccc6c5C(=O)N(C5CCC(=O)NC5=O)C6=O)cc4)nc4[nH]ccc34)cn2)C1 (centres unmarked) [Compound 59],EC50,MHH-CALL-4; [3],4.19 µM
same,killing of MHH-CALL-4 cells (activity in words),MHH-CALL-4,relatively low activity
same,Target Degradation (Western Blot) IKZF1,IKZF1,1 (1 = None (<20% degradation at 24 h))
same,Target Degradation (Western Blot) JAK2,JAK2,1 (1 = None (<20% degradation at 24 h))
"CCCn1cc(-c2nc(NCCOCCOCCOCCOCCNC(=O)CNc3cccc4c3CN(C3CCC(=O)NC3=O)C4=O)nc3[nH]ccc23)cn1 (centres unmarked) [SJ000986079, 2-((2-(2,6-dioxopiperidin-3-yl)-1-oxoisoindolin-4-yl)amino)-N-(14-((4-(1-propyl-1H-pyrazol-4-yl)-7H-pyrrolo[2,3-d]pyrimidin-2-yl)amino)-3,6,9,12-tetraoxatetradecyl)acetamide]",EC50,MHH-CALL-4; [2],> 100 µM
CCS(=O)(=O)N1CC(CC#N)(n2cc(-c3nc(Nc4ccc(C(=O)NCCCNc5ccc6c(c5)C(=O)N(C5CCC(=O)NC5=O)C6=O)cc4)nc4[nH]ccc34)cn2)C1 (centres unmarked) [Compound 53],EC50,MHH-CALL-4; [3],0.0346 µM
same,killing of MHH-CALL-4 cells (activity in words),MHH-CALL-4,intermediately effective
same,Target Degradation (Western Blot) JAK2,JAK2,1 (1 = None (<20% degradation at 24 h))
same,Target Degradation (Western Blot) GSPT1,GSPT1,3 (3 = Strong (>60% degradation at 24 h))
CCS(=O)(=O)N1CC(CC#N)(n2cc(-c3nc(Nc4ccc(C(=O)NCCCN5CCN(c6ccc7c(c6)C(=O)N(C6CCC(=O)NC6=O)C7=O)CC5)cc4)nc4[nH]ccc34)cn2)C1 (centres unmarked) [Compound 56],EC50,MHH-CALL-4; [3],0.562 µM
same,killing of MHH-CALL-4 cells (activity in words),MHH-CALL-4,intermediately effective
same,Target Degradation (Western Blot) IKZF1,IKZF1,1 (1 = None (<20% degradation at 24 h))
same,Target Degradation (Western Blot) JAK2,JAK2,2 (2 = Medium (20-40% degradation at 24 h))
"O=C1CCC(N2C(=O)c3ccccc3C2=O)C(=O)N1 (centres unmarked) [Thalidomide, thalidomide, reference compound]",EC50,MHH-CALL-4; [4],60 µM
"Nc1cccc2c1CN(C1CCC(=O)NC1=O)C2=O (centres unmarked) [Lenalidomide, lenalidomide, reference compound]",EC50,MHH-CALL-4; [4],34.5 µM
CCCn1cc(-c2nc(Nc3ccc(NC(=O)CCOCCOCCOCCOCCOCCOCCNc4cccc5c4C(=O)N(C4CCC(=O)NC4=O)C5=O)cc3)nc3[nH]ccc23)cn1 (centres unmarked) [SJ000986341],EC50,MHH-CALL-4; [2],5.83 µM
CCCn1cc(-c2nc(Nc3ccc(C(=O)NCCOCCOCCOCCOCCOCCOCCNc4cccc5c4C(=O)N(C4CCC(=O)NC4=O)C5=O)cc3)nc3[nH]ccc23)cn1 (centres unmarked) [SJ000986050],EC50,MHH-CALL-4; [2],0.72 µM
CCS(=O)(=O)N1CC(CC#N)(n2cc(-c3nc(Nc4ccc(C(=O)NCCCCNc5cccc6c5C(=O)N(C5CCC(=O)N(C)C5=O)C6=O)cc4)nc4[nH]ccc34)cn2)C1 (centres unmarked) [Compound 61],EC50,MHH-CALL-4; [3],0.0515 µM
same,killing of MHH-CALL-4 cells (activity in words),MHH-CALL-4,intermediately effective
same,Target Degradation (Western Blot) IKZF1,IKZF1,2 (2 = Medium (20-40% degradation at 24 h))
same,Target Degradation (Western Blot) JAK2,JAK2,1 (1 = None (<20% degradation at 24 h))
CCCn1cc(-c2nc(Nc3ccc(NC(=O)CCOCCOCCOCCOCCOCCNc4cccc5c4C(=O)N(C4CCC(=O)NC4=O)C5=O)cc3)nc3[nH]ccc23)cn1 (centres unmarked) [SJ000986342],EC50,MHH-CALL-4; [2],6.89 µM
CCCn1cc(-c2nc(Nc3ccc(C(=O)NCCOCCOCCOCCOCCNc4cccc5c4C(=O)N(C4CCC(=O)NC4=O)C5=O)cc3)nc3[nH]ccc23)cn1 (centres unmarked) [SJ000986049],EC50,MHH-CALL-4; [2],2.3 µM
"Nc1cccc2c1C(=O)N(C1CCC(=O)NC1=O)C2=O (centres unmarked) [Pomalidomide, pomalidomide, reference compound]",EC50,MHH-CALL-4; [4],63.7 µM
